Values quoted from earlier work as cited in patent US7288142B2, “Black dyes composition for ink-jet inks” (Everlight USA, Inc., priority 2005, dated 2007).

Columns and labels:
[1] = as ink-jet black dye, prior art
[2] = as ink-jet black dye, prior art; remark: listed apart in the source

Row | light-fastness [1] | solubility [2] | Molecule
1 | poor | – | Nc1cc2c(O)c(N=Nc3ccc(N=Nc4ccc(S(=O)(=O)[O-])cc4)c4ccc(S(=O)(=O)[O-])cc34)c(S(=O)(=O)[O-])cc2cc1S(=O)(=O)[O-].[Na+].[Na+].[Na+].[Na+] [C.I. Food Black 2]
2 | good | low | C.I. Direct Black 168
